This is an account of results in ChEMBL document CHEMBL1154793, “The lecanindoles, nonsteroidal progestins from the terrestrial fungus Verticillium lecanii 6144” (J Nat Prod, 2009).

Where only a bound is given, the exact number is not on record here.

The target of experiment [1] is T1, Androgen receptor (Homo sapiens, UniProt P10275).
T1 sequence (P10275 whole entry): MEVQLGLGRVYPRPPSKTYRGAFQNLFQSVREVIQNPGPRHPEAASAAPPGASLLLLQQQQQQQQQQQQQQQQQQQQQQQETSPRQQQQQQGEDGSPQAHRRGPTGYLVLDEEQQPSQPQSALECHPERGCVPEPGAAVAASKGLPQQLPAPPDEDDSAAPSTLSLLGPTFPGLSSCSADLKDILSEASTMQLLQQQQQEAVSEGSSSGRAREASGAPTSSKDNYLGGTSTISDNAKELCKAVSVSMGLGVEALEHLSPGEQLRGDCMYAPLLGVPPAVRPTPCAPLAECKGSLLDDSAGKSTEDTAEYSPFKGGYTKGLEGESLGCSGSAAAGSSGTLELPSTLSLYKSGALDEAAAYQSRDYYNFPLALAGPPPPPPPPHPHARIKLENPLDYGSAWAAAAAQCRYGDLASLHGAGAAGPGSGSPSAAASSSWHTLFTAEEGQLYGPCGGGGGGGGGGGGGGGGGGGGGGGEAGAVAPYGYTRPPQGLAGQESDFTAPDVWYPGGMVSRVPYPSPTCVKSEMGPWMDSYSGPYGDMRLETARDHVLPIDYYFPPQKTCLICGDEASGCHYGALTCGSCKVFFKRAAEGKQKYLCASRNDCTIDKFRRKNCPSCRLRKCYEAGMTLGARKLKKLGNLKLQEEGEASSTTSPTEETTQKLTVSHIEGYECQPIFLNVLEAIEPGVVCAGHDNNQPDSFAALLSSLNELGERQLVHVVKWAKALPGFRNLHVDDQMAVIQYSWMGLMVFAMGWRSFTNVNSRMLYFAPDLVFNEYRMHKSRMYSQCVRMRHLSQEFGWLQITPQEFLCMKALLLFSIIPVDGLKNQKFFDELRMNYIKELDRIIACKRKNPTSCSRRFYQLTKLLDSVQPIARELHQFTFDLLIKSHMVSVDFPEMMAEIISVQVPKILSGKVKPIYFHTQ
As to the kind of experiment: Agonist activity at androgen receptor ligand binding domain expressed in african green monkey COS7 cells co-transfected with Gal4-DBD up to 10 uM by luciferase reporter gene assay. The settings on record: cos-7. Type of experiment: cell-based. (A reporter such as luciferase makes a cellular process visible.)

In experiment [2] the target is T2, Androgen receptor (Homo sapiens) (UniProt P10275).
T2 sequence (whole entry): T1 sequence (P10275 whole entry)
Kind of experiment: Antagonist activity at androgen receptor ligand binding domain expressed in african green monkey COS7 cells co-transfected with Gal4-LBD by luciferase reporter gene assay relative to control. More on the design: scale not given: the % may be the effect or the level left. To be noted: COS-7. Type of experiment: cell-based.

The next experiment concerns the target T3, Glucocorticoid receptor (Homo sapiens, UniProt P04150).
T3 sequence (P04150 whole entry): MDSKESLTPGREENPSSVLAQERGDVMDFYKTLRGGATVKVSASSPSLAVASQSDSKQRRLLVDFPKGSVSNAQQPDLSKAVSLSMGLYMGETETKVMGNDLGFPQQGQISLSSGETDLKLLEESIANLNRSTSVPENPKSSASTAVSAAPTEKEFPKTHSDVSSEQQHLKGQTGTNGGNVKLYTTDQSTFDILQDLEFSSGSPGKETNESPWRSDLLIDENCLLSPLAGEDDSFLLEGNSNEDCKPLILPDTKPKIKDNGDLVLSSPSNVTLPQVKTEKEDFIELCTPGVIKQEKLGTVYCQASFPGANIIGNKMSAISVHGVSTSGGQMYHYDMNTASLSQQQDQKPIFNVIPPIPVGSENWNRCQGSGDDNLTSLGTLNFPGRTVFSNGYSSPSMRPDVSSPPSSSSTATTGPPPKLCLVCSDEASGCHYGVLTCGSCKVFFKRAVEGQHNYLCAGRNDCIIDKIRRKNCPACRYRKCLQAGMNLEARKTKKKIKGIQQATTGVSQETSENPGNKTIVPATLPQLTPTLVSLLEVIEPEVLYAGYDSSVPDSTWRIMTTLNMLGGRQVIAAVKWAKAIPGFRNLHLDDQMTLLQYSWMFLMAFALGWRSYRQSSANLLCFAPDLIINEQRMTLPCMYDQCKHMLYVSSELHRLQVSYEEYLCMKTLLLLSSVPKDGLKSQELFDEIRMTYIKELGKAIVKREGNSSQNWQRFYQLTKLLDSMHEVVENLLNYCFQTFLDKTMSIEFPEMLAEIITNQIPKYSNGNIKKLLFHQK
As to the kind of experiment: Agonist activity at glucocorticoid receptor ligand binding domain expressed in african green monkey COS7 cells co-transfected with Gal4-LBD up to 10 uM by luciferase reporter gene assay. The settings on record: cos-7. Type of experiment: cell-based.

Experiment [3] has as its target T4, Mineralocorticoid receptor (Homo sapiens, UniProt P08235).
T4 sequence (P08235 whole entry): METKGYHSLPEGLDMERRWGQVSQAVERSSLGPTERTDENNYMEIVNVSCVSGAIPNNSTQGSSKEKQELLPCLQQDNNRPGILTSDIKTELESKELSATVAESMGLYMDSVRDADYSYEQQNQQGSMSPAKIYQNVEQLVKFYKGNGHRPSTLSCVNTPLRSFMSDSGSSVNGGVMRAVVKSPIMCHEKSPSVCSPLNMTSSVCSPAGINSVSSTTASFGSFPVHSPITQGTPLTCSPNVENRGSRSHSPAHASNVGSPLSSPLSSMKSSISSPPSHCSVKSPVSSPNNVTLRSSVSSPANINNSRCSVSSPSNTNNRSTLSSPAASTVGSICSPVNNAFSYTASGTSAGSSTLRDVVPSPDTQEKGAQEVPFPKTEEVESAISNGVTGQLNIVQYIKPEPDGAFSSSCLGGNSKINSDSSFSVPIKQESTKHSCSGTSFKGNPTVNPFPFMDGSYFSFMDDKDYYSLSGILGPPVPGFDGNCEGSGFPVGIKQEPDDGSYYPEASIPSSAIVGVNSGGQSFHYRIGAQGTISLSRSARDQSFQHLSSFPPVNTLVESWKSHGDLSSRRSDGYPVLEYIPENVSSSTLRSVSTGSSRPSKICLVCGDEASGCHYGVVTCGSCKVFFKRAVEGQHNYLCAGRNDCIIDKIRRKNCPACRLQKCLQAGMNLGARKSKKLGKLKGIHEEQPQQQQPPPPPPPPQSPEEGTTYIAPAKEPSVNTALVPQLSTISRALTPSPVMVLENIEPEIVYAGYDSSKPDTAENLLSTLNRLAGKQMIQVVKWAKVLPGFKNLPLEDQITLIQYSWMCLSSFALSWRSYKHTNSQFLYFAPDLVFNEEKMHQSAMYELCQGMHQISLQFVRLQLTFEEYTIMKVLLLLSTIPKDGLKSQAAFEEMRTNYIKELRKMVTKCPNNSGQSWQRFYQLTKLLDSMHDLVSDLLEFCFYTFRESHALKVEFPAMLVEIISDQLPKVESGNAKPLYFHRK
Kind of experiment: Agonist activity at mineralocorticoid receptor ligand binding domain expressed in african green monkey COS7 cells co-transfected with Gal4-LBD up to 10 uM by luciferase reporter gene assay. Type of experiment: cell-based. To be noted: cos-7.

The target of a further experiment is Estrogen receptor beta (Homo sapiens, UniProt Q92731). As to the kind of experiment: Antagonist activity at estrogen receptor beta ligand binding domain expressed in african green monkey COS7 cells co-transfected with Gal4-LBD by luciferase reporter gene assay relative to control. Type of experiment: cell-based. More on the design: scale not given: the % may be the effect or the level left. To be noted: COS-7.

Experiment [4] deals with T1, Androgen receptor.

Estrogen receptor beta, sequence (Q92731 whole entry, the tested form may be a part): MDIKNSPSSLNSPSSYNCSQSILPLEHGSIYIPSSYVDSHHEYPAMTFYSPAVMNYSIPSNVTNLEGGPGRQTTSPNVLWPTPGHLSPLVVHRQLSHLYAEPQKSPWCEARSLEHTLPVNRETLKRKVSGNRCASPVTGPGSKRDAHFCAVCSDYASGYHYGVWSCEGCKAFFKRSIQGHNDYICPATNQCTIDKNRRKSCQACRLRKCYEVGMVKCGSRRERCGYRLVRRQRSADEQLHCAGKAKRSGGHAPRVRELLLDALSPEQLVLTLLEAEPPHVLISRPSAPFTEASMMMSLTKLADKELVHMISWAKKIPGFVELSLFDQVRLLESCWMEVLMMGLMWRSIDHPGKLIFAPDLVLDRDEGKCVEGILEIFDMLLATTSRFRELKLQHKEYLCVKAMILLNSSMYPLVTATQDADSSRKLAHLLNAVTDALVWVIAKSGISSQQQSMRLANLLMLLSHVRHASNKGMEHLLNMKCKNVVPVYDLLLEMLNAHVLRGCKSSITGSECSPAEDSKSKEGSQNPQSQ

Turning to `CC1(C)C(=O)CC[C@]2(C)[C@@]3(C)c4[nH]c5ccccc5c4C[C@@H]3CC[C@@]12O` [LECANINDOLE B], the EC50 result (at Androgen receptor [1]; on Glucocorticoid receptor; in experiment [3]) was “Not Active” throughout. Moreover, the figures for the Activity (in experiment [2]; on Estrogen receptor beta) were 32% and 12%, respectively. The IC50 against Androgen receptor [4] was above 10 µM.
For the molecule `CC1(C)[C@H](O)CC[C@]2(C)[C@@]3(C)c4[nH]c5ccccc5c4C[C@@H]3CC[C@@]12O` [LECANINDOLE D], the EC50 result (at Androgen receptor [1]; at Glucocorticoid receptor; in experiment [3]) was “Not Active” throughout. Also, the figures for the Activity (in experiment [2]; on Estrogen receptor beta) were 41% and 64%, respectively. This molecule also displayed a half-maximal inhibitory concentration (IC50) on Androgen receptor [4] above 10 µM.

A word on the IC50: it is the concentration at which inhibition is half-maximal.
